Experimental data as given in patent US9943496B2, “Dietary supplement based on ethyl ferulate” (LABORATORIOS MINKAB, S. A. DE C. V., priority 2015, dated 2018).

Columns and labels:
swine = conditions: 50 ppm, swine confinement; cited from earlier work
β receptors = conditions: bovine satellite cells, in vitro; cited from earlier work
heifers [1] = assay: Sacrifice and evaluation of carcass quality of supplemented heifers; format: in vivo, Bos taurus; conditions: for Backfat / Cold carcass yield / Hot yield carcass / Rib eye area / Cold carcass weight / Hot carcass weight: last 30 days; for Cold carcass weight: 24 h postmortem; for Hot carcass weight: mean ± standard error; for Marbling: USDA marbling score (Little 500-599, Modesto 600-699); for % de Choice or greater: percentage of carcass classified Choice or higher
Protocol: Once the productive performance test was finished, the animals were sacrificed following the current regulations.
The pH was measured at 45 min and 24 h postmortem in the Longissimus dorsi (LD) at the 12th intercostal space using a portable digital potentiometer brand HANNA HI 99163 (Mettler-Toledo Process Analytical Inc., Wilmington, Mass., USA). The weight of the hot carcass was recorded, then the carcasses were cooled to 0° C. for 24 h.
At 24 h postmortem the weight of the cold carcass was measured. In at least 36 carcasses per treatment, area in cm^2 rib eye, the thickness of back fat in mm, was evaluated. The degree of marbling was also evaluated following USDA guidelines (2000): Trace (300-399), Light (400-499), Little (500-599), Modest (600-699), Moderate (700-799), Slightly abundant (800-899). These determinations were made in the LD muscle to level 12th intercostal space. Finally, the quality level of the channel according to USDA (2000) was estimated, based on the degree of marbling and carcass physiological maturity: Select − (400-449), Select + (450-499) Choice − (500-599), Choice medium (600-699), Choice + (700-799), Prime (800 or greater).
(§1) Productive performance data were analyzed by ANOVA with a design of a randomized complete block using the method of generalized linear models (GLM) using initial weight as a covariate; data carcass quality were analyzed under a completely randomized design blocks. The variance analysis (mixed models procedure), included as a fixed effect to experimental treatments and as a random effect the initial weight of animals for productive performance data and final weight for carcass quality. The study data shelf life was analyzed using analysis of variance of two ways, considering the fixed effects of treatment and storage time. When differences between treatments were detected in productive performance variables and carcass quality, comparisons of means were performed by orthogonal contrasts. The following contrasts were tested: Contrast 1: Control vs FE5+FE10; Contrast 2: FE5 vs FE10. For data quality meat in the study of oxidative stability, the comparison of means was by the Tukey test. All data were processed in the statistical package NCSS (NCSS Version 8.0, 2012).

heifers [2] = assay: Productive performance test of heifers supplemented with ethyl ferulate in the diet; format: in vivo, Bos taurus; conditions: for Final weight: last 30 days of intensive feeding; for Final weight / Feed conversion / Daily gain / Feed intake: mean ± standard error; for Feed conversion / Daily gain / Feed intake: last 30 days; for Feed conversion: feed consumption/daily gain
Protocol: Productive performance test was conducted in the feedlot of a commercial farm, located in the state of Sonora, Mexico, at an altitude of 210 meters above sea level, latitude 29° 05′ 56″ and longitude 110° 57′ 15″ (INEGI, 2012).
Prior to the start of the study, 270 cattle (heifers) commercial beef producers crosses (of racial influence mainly Bos taurus), which were divided into three lots with uniform power days, racial origin and composition were selected. The animals were weighed individually and identified with plastic earring different color, to be distributed randomly according to a block design (3) complete random. To facilitate the handling of heifers and scheduling your humane slaughter, each block was postponed one week and was formed by three pens with 30 animals each.
Once done animals blocks, each pen within each block was completely randomized one of the following treatments: • Treatment CONT: Animals receiving the basal diet without additive (control). • Treatment FE5: Animals receiving the basal diet supplemented the last 30 days of fattening stage 5 ppm of ethyl ferulate. • Treatment FE10: Animals receiving the basal diet supplemented the last 30 days of the fattening phase with 10 ppm of ethyl ferulate.
The initial live weight of the animals was 484.68±2.84 kg. All animals were fed a basal diet with a ratio of forage:concentrate of 20:80, which was formulated to contain 1.62 Mcal of net energy gain/kg of feed, 12.7% crude protein, 0.91% Calcium and 0.27% phosphorus. The amount of ethyl ferulate per ton of feed was first added to the mineral premix and later it was incorporated into the automated experimental ration.
All animals were individually weighed at the beginning and end of the experimental test, for which an electronic scale Tru-Test 300 (Tru-Test Corporation, New Zealand) equipped with recording memory was used. Daily weight gain (GDP) was estimated by the difference between initial and final weight and divided by 30 (the feeding period).
Feed intake was recorded daily for corral, for which both the food offered and refused was weighed. Feed conversion per pen/treatment with the average food consumption ratio between GDP was also calculated.
as §1

[3] = compared with ferulic acid; cited from earlier work
[4] = FE supplemented vs control, P<0.05
[5] = contrast C1: Control vs FE5+FE10, P<0.05

COc1cc(/C=C/C(=O)O)ccc1O [AF, Ferulic acid]
Back fat thickness over the control group (swine): decrease
Recognition by β receptors on the cell membrane (β receptors): recognized by β receptors

CCOC(=O)/C=C/c1ccc(O)c(OC)c1 [ethyl ferulate]
Thickness of the dorsal fat, effect of treatments (heifers [1]; 5 and 10 ppm vs control, P>0.05): not affected by treatments
Marbling, 10 ppm FE regarding 5 ppm FE (heifers [1]; 10 ppm vs 5 ppm): higher marbling
Backfat (heifers [1]; FE5: 5 ppm/day): 14.60 ± 1.05 mm
Cold carcass yield (heifers [1]; FE5: 5 ppm/day): 61.77 ± 0.16%
Hot yield carcass (heifers [1]; FE5: 5 ppm/day): 62.38 ± 0.15%
Rib eye area (heifers [1]; FE5: 5 ppm/day): 85.67 ± 2.28 cm^2
Cold carcass weight (heifers [1]; FE5: 5 ppm/day): 320.81 ± 3.25 kg
Hot carcass weight (heifers [1]; FE5: 5 ppm/day): 323.97 ± 3.25 kg
Marbling (heifers [1]; FE5: 5 ppm/day): 578.57 ± 16
% de Choice or greater (heifers [1]; FE5: 5 ppm/day): 66.7%
Backfat (heifers [1]; FE10: 10 ppm/day): 15.82 ± 0.84 mm
Cold carcass yield (heifers [1]; FE10: 10 ppm/day): 61.68 ± 0.19%
Hot yield carcass (heifers [1]; FE10: 10 ppm/day): 62.39 ± 0.19%
Rib eye area (heifers [1]; FE10: 10 ppm/day): 86.60 ± 1.87 cm^2
Cold carcass weight (heifers [1]; FE10: 10 ppm/day): 320.50 ± 3.19 kg
Hot carcass weight (heifers [1]; FE10: 10 ppm/day): 324.19 ± 3.23 kg
Marbling (heifers [1]; FE10: 10 ppm/day): 637.14 ± 15
% de Choice or greater (heifers [1]; FE10: 10 ppm/day): 80%
Hot carcass weight (PCC) greater than control (heifers [1]; FE supplemented heifers vs control, P<0.001): 1.80%
Increase of cold carcass weight (PCF) vs control (heifers [1]; [4]): 1.86%
Marbling of supplemented compared to non supplemented animals (heifers [1]; [4]): More marbling
Increase in carcass weight vs control (heifers [1]; hot carcass, FE supplemented vs control): more than 5 kg
Final weight (heifers [2]; FE5: 5 ppm/day): 519.58 ± 5.4 kg
Feed conversion (heifers [2]; FE5: 5 ppm/day): 8.78 ± 0.6 kg
Daily gain (heifers [2]; FE5: 5 ppm/day): 1.13 ± 0.04 kg
Feed intake (heifers [2]; FE5: 5 ppm/day): 8.11 ± 0.07 kg
Final weight (heifers [2]; FE10: 10 ppm/day): 520.20 ± 5.63 kg
Feed conversion (heifers [2]; FE10: 10 ppm/day): 7.25 ± 0.27 kg
Daily gain (heifers [2]; FE10: 10 ppm/day): 1.23 ± 0.04 kg
Feed intake (heifers [2]; FE10: 10 ppm/day): 8.09 ± 0.07 kg
Less feed required to gain one kilogram of live weight (heifers [2]; FE supplemented heifers vs control): 4.3 kg
Improvement in feed conversion relative to control (heifers [2]; [5]): 35%
Increase of daily gain (GDP) relative to control (heifers [2]; [5]): 26%
Antibacterial and antioxidant capacity [3]: very similar to those of ferulic acid
